Tested on: ER-alpha MCF7
Test: ER-alpha MCF7 HCS EC50; stated as measured by in vitro cell proliferation assays of Examples 902 and 903
Assay type: cell-based
Conditions: Homo sapiens, MCF7, MCF7 cells; Table 2
Summary of the method: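 MCF7 cells seeded 1000-2000 cells/well for 16 h, then treated with nine-point 1:2 DMSO dilution series in quadruplicate at 37 °C, 5% CO2 for 4 days. Viable cells quantified by CellTiter-Glo ATP luminescence; EC50 calculated. Controls: fulvestrant at final 100 nM, DMSO 0.2% v/v.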

SMILES	EC50
C[C@@H]1Cc2c([nH]c3ccccc23)[C@@H](c2c(F)cc(OCCN3CC(CF)C3)cc2F)N1C[C@H](CO)C(F)(F)F [Example 319, (R)-2-(((1R,3R)-1-(2,6-difluoro-4-(2-(3-(fluoromethyl)azetidin-1-yl)ethoxy)phenyl)-3-methyl-1,3,4,9-tetrahydro-2H-pyrido[3,4-b]indol-2-yl)methyl)-3,3,3-trifluoropropan-1-ol]	0.43 nM
C[C@@H]1Cc2c([nH]c3ccccc23)[C@@H](c2ccc(NCCN3CC(CF)C3)cc2)N1S(C)(=O)=O [Example 325, N-[2-[3-(fluoromethyl)azetidin-1-yl]ethyl]-4-[(1R,3R)-3-methyl-2-methylsulfonyl-1,3,4,9-tetrahydropyrido[3,4-b]indol-1-yl]aniline]	1 nM
C[C@@H]1Cc2c([nH]c3ccccc23)[C@@H](c2c(F)cc(NCCN3CC(CF)C3)cc2F)N1S(C)(=O)=O [Example 326, 3,5-difluoro-N-[2-[3-(fluoromethyl)azetidin-1-yl]ethyl]-4-[(1R,3R)-3-methyl-2-methylsulfonyl-1,3,4,9-tetrahydropyrido[3,4-b]indol-1-yl]aniline]	0.305 nM
C[C@@H]1Cc2c([nH]c3ccccc23)[C@@H](c2ccc(NCCN3CC(CF)C3)cc2F)N1CC(C)(F)CO (stereo partly drawn) [Example 327, 2-fluoro-3-((1R,3R)-1-(2-fluoro-4-((2-(3-(fluoromethyl)azetidin-1-yl)ethyl)amino)phenyl)-3-methyl-1,3,4,9-tetrahydro-2H-pyrido[3,4-b]indol-2-yl)-2-methylpropan-1-ol]	0.347 nM
C[C@@H]1Cc2c([nH]c3ccccc23)[C@@H](c2ccc(OCCN3CC(CF)C3)cc2)N1S(=O)(=O)N(C)C [Example 329, (1R,3R)-1-[4-[2-[3-(fluoromethyl)azetidin-1-yl]ethoxy]phenyl]-N,N,3-trimethyl-1,3,4,9-tetrahydropyrido[3,4-b]indole-2-sulfonamide]	1 nM
C[C@@H]1Cc2c([nH]c3ccccc23)[C@@H](c2ccc(OC3CN(CCCF)C3)cc2)N1S(C)(=O)=O [Example 330, (1R,3R)-1-[4-[1-(3-fluoropropyl)azetidin-3-yl]oxyphenyl]-3-methyl-2-methylsulfonyl-1,3,4,9-tetrahydropyrido[3,4-b]indole]	2 nM
CC(C)[S@+]([O-])N1[C@H](c2ccc(OCCN3CC(CF)C3)cc2)c2[nH]c3ccccc3c2C[C@H]1C [Example 332, (1R,3R)-1-(4-(2-(3-(fluoromethyl)azetidin-1-yl)ethoxy)phenyl)-2-((S)-isopropylsulfinyl)-3-methyl-2,3,4,9-tetrahydro-1H-pyrido[3,4-b]indole]	8 nM
CC(C)[S@@+]([O-])N1[C@H](c2ccc(OCCN3CC(CF)C3)cc2)c2[nH]c3ccccc3c2C[C@H]1C [Example 333, (1R,3R)-1-(4-(2-(3-(fluoromethyl)azetidin-1-yl)ethoxy)phenyl)-2-((R)-isopropylsulfinyl)-3-methyl-2,3,4,9-tetrahydro-1H-pyrido[3,4-b]indole]	48 nM
C[C@@H]1Cc2c([nH]c3ccccc23)[C@@H](c2c(F)cc(OC3CN(CCCCCF)C3)cc2F)N1CC(C)(C)F [Example 335, (1R,3R)-1-[2,6-difluoro-4-[1-(5-fluoropentyl)azetidin-3-yl]oxy-phenyl]-2-(2-fluoro-2-methyl-propyl)-3-methyl-1,3,4,9-tetrahydropyrido[3,4-b]indole]	0.442 nM
C[C@@H]1Cc2c([nH]c3ccccc23)[C@@H](c2c(F)cc(OC3CN(CCCCF)C3)cc2F)N1CC(C)(C)F [Example 337, (1R,3R)-1-[2,6-difluoro-4-[1-(4-fluorobutyl)azetidin-3-yl]oxy-phenyl]-2-(2-fluoro-2-methyl-propyl)-3-methyl-1,3,4,9-tetrahydropyrido[3,4-b]indole]	0.387 nM
C[C@@H]1Cc2c([nH]c3ccccc23)[C@@H](c2cc(F)c(OC3CN(CCCCCF)C3)c(F)c2)N1CC(C)(C)F [Example 338, (1R,3R)-1-[3,5-difluoro-4-[1-(5-fluoropentyl)azetidin-3-yl]oxy-phenyl]-2-(2-fluoro-2-methyl-propyl)-3-methyl-1,3,4,9-tetrahydropyrido[3,4-b]indole]	1 nM
C[C@@H]1Cc2c([nH]c3ccccc23)[C@@H](c2cc(F)c(OC3CN(CCCF)C3)cc2F)N1CC(C)(C)F [Example 339, (1R,3R)-1-[2,5-difluoro-4-[1-(3-fluoropropyl)azetidin-3-yl]oxy-phenyl]-2-(2-fluoro-2-methyl-propyl)-3-methyl-1,3,4,9-tetrahydropyrido[3,4-b]indole]	1 nM
C[C@@H]1Cc2c([nH]c3ccccc23)[C@@H](c2cnc(OC3CN(CCCF)C3)cn2)N1CC(C)(C)F [Example 342, (1S,3R)-2-(2-fluoro-2-methylpropyl)-1-(5-((1-(3-fluoropropyl)azetidin-3-yl)oxy)pyrazin-2-yl)-3-methyl-2,3,4,9-tetrahydro-1H-pyrido[3,4-b]indole]	0.619 nM
C[C@@H]1Cc2c([nH]c3ccccc23)[C@@H](c2ccc(OC3CN(CCCF)C3)cc2C#N)N1CC(C)(C)F [Example 344, 2-[(1R,3R)-2-(2-fluoro-2-methyl-propyl)-3-methyl-1,3,4,9-tetrahydropyrido[3,4-b]indol-1-yl]-5-[1-(3-fluoropropyl)azetidin-3-yl]oxy-benzonitrile]	0.347 nM
C[C@@H]1Cc2c([nH]c3ccccc23)[C@@H](c2ccn(CCCN3CC(CF)C3)c(=O)c2)N1CC(C)(C)F [Example 345, 4-((1R,3R)-2-(2-fluoro-2-methylpropyl)-3-methyl-2,3,4,9-tetrahydro-1H-pyrido[3,4-b]indol-1-yl)-1-(3-(3-(fluoromethyl)azetidin-1-yl)propyl)pyridin-2(1H)-one]	12.3 nM

Stronger by EC50, values ahead:

EC50	SMILES
0.27 nM	C[C@@H]1Cc2c([nH]c3ccccc23)[C@@H](c2c(F)cc(NCCN3CC(CF)C3)cc2F)N1CC(C)(F)CO (stereo partly drawn) [Example 320, 3-((1R,3R)-1-(2,6-difluoro-4-((2-(3-(fluoromethyl)azetidin-1-yl)ethyl)amino)phenyl)-3-methyl-1,3,4,9-tetrahydro-2H-pyrido[3,4-b]indol-2-yl)-2-fluoro-2-methylpropan-1-ol]
0.263 nM	C[C@@H]1Cc2c([nH]c3ccccc23)[C@@H](c2cc(F)c(OC3CN(CCCF)C3)c(F)c2)N1CC(C)(C)F [Example 336, (1R,3R)-1-[3,5-difluoro-4-[1-(3-fluoropropyl)azetidin-3-yl]oxy-phenyl]-2-(2-fluoro-2-methyl-propyl)-3-methyl-1,3,4,9-tetrahydropyrido[3,4-b]indole]
0.236 nM	C[C@@H]1Cc2c([nH]c3ccccc23)[C@@H](c2c(F)cc(OC3CN([C@H]4C[C@H](O)C4)C3)cc2F)N1CC(C)(C)F [Example 331, 3-[3-[3,5-difluoro-4-[(1R,3R)-2-(2-fluoro-2-methyl-propyl)-3-methyl-1,3,4,9-tetrahydropyrido[3,4-b]indol-1-yl]phenoxy]azetidin-1-yl]cyclobutanol]
0.222 nM	C[C@@H]1Cc2c([nH]c3ccccc23)[C@@H](c2c(F)cc(NCCN3CC(CF)C3)cc2F)N1CC(C)(C)F [Example 321, 3,5-difluoro-N-[2-[3-(fluoromethyl)azetidin-1-yl]ethyl]-4-[(1R,3R)-2-(2-fluoro-2-methyl-propyl)-3-methyl-1,3,4,9-tetrahydropyrido[3,4-b]indol-1-yl]aniline]
0.215 nM	C[C@@H]1Cc2c([nH]c3ccccc23)[C@@H](c2ccc(NCCN3CC(CF)C3)cc2)N1CC(C)(C)F [Example 323, N-[2-[3-(fluoromethyl)azetidin-1-yl]ethyl]-4-[(1R,3R)-2-(2-fluoro-2-methyl-propyl)-3-methyl-1,3,4,9-tetrahydropyrido[3,4-b]indol-1-yl]aniline]
0.203 nM	C[C@@H]1Cc2c([nH]c3ccccc23)[C@@H](c2c(F)cc(NC3CN(CCCF)C3)cc2F)N1CC(F)(F)CO [Example 340, 3-[(1R,3R)-1-[2,6-difluoro-4-[[1-(3-fluoropropyl)azetidin-3-yl]amino]phenyl]-3-methyl-1,3,4,9-tetrahydropyrido[3,4-b]indol-2-yl]-2,2-difluoro-propan-1-ol]
0.2 nM	C[C@@H]1Cc2c([nH]c3ccccc23)[C@@H](c2c(F)cc(OC3(C)CN(CCCF)C3)cc2F)N1CC(C)(C)F [Example 343, (1R,3R)-1-(2,6-difluoro-4-((1-(3-fluoropropyl)-3-methylazetidin-3-yl)oxy)phenyl)-2-(2-fluoro-2-methylpropyl)-3-methyl-2,3,4,9-tetrahydro-1H-pyrido[3,4-b]indole]
0.198 nM	CCS(=O)(=O)N1[C@H](c2ccc(OCCN3CC(CF)C3)cc2)c2[nH]c3ccccc3c2C[C@H]1C [Example 324, (1R,3R)-2-ethylsulfonyl-1-[4-[2-[3-(fluoromethyl)azetidin-1-yl]ethoxy]phenyl]-3-methyl-1,3,4,9-tetrahydropyrido[3,4-b]indole]
0.167 nM	C[C@@H]1Cc2c([nH]c3ccccc23)[C@@H](c2ccc(NCCN3CC(CF)C3)cc2)N1CC(C)(F)CO (stereo partly drawn) [Example 328, 2-fluoro-3-((1R,3R)-1-(4-((2-(3-(fluoromethyl)azetidin-1-yl)ethyl)amino)phenyl)-3-methyl-1,3,4,9-tetrahydro-2H-pyrido[3,4-b]indol-2-yl)-2-methylpropan-1-ol]
0.13 nM	C[C@@H]1Cc2c([nH]c3ccccc23)[C@@H](c2c(F)cc(OC3CN([C@H]4C[C@@H](O)C4)C3)cc2F)N1CC(C)(C)F [Example 334, (1S,3s)-3-(3-(3,5-difluoro-4-((1R,3R)-2-(2-fluoro-2-methylpropyl)-3-methyl-2,3,4,9-tetrahydro-1H-pyrido[3,4-b]indol-1-yl)phenoxy)azetidin-1-yl)cyclobutanol]
0.0253 nM	C[C@@H]1Cc2c([nH]c3ccccc23)[C@@H](c2ccc(NCCN3CC(CF)C3)cc2F)N1CC(C)(C)F [Example 322, 3-fluoro-N-[2-[3-(fluoromethyl)azetidin-1-yl]ethyl]-4-[(1R,3R)-2-(2-fluoro-2-methyl-propyl)-3-methyl-1,3,4,9-tetrahydropyrido[3,4-b]indol-1-yl]aniline]

— US20250114338A1, “TETRAHYDRO-PYRIDO[3,4-b]INDOLE ESTROGEN RECEPTOR MODULATORS AND USES THEREOF” (Genentech, Inc., priority 2014, published 2025)
